Test [1] deals with adjuvant-induced polyarthritis (Mycobacterium butyricum). Briefly: Modified developing adjuvant arthritis in rats (adjuvant-induced polyarthritis, AIP). Type of test: in vivo, male Lewis rats. The conditions noted are these: p.o., from d. 1-8. The procedure: A. Modified developing adjuvant arthritis in rats. This test is based on the procedure originally described by Pearson (Proc. Soc. Biol. Med., 1956, pp 91-5). Each experimental group used six male Lewis rats weighing approx. 250 gm. Arthritis was produced by a single intradermal injection of Mycobacterium butyricum (0.6 mg in 0.1 ml mineral oil) into the base of the tail. Test compounds were administered orally, once daily, starting on the day of inoculation (day 1) through day 8. The paw volume (average of two hind paws) was measured by the mercury displacement method at least twice weekly during the course of the experiment (40 to 42 days). The efficacy of a compound was expressed as the percent reduction of hind paw volume of treated vs. untreated rats using the following equation: [formula] PC=positive control (not treated, arthritic) NC=negative control (not treated, non-arthritic) RX=drug group (treated, arthritic) | ^(a) once daily, p.o., from d. 1-8. | ^(b) % Inhibition of paw edema: O = <25; + = 25-<40; ++ = 40-<60; +++ | = 60-80; ++++ = 80-100.

The test system of test [2] is carrageenin-induced paw edema. Briefly: Carrageenin induced paw edema in the rat (CIP). The conditions noted are these: single oral dose of 50 mg/kg 30 min. prior to carrageenin injection; 4 hrs. after carrageenin injection. Type of test: in vivo, male Sprague Dawley rats. The procedure:
B. Carrageenin induced paw edema in the rat.
This test is based on the procedure originally described by Holsapple and Yim (Inflammation, 1984, 8:223). Six male Sprague Dawley rats weighing approx. 300 gm were used in each experimental group. The rats had been starved for 24 hours prior to injection of 0.1 ml of 1% carrageenin into the plantar surface of the left hind paw. Test compounds were dosed orally 30 minutes prior to carrageenin administration. The volumes of the left hind paws were measured by mercury displacement at 2,4, and 6 hours following carrageenin injection. The efficacy of a compound was expressed as the percent inhibition of carrageenin injected paw volume as compared to non-injected paw using the following equation: [formula]
C=Vehicle control group (left paw volume-right paw volume)
RX=Drug treated group (left paw volume-right paw volume)
The peak of drug effects usually occurred 2-4 hours following carrageenin injection.
^(c) test compound administered as a single oral dose of 50 mg/kg 30
min. prior to carrageenin injection. % Inhibition determined 4 hrs. after
carrageenin injection; I = <25% reduction in paw volume and A =
≥25% reduction in paw volume.

The test system of test [3] is adjuvant-induced arthritis. Conditions: J. Med. Chem., 1979, 22:1385-9; cited from earlier work.

For `CNC(=O)C(C#N)C(=O)Nc1ccc(C(F)(F)F)cc1` (stereo not drawn) [Example 3, β-Methylamino-β-oxo-α-(4-trifluoromethylphenyl) carbamoylpropionitrile], in test [1] (50 mg/kg once daily), the “AIP Inhib. score d. 20-22 (% Inhibition of paw edema)” value was “+++ (60-80)” and the “AIP Inhib. score d. 40-42 (% Inhibition of paw edema)” value was “+++ (60-80)”. Moreover, the “CIP (% Inhibition, reduction in paw volume)” value in test [2] was “A (≥25% reduction in paw volume)”.
Consider `COC(=O)C(C#N)C(=O)Nc1ccc(C(F)(F)F)cc1` (stereo not drawn) [Example 2, βMethoxy-β-oxo-α-(4-trifluoromethylphenyl)carbamoylpropionitrile], for which, in test [1] (100 mg/kg once daily), the “AIP Inhib. score d. 20-22 (% Inhibition of paw edema)” value is “+++ (60-80)” and the “AIP Inhib. score d. 40-42 (% Inhibition of paw edema)” value was “+++ (60-80)”. The “CIP (% Inhibition, reduction in paw volume)” value in test [2] was “I (<25% reduction in paw volume)”.
Regarding `N#CCC(=O)c1ccccc1` [Benzoylacetonitrile (I), Benzoylacetonitrile], the “inhibition of adjuvant-induced arthritis in rats” value in test [3] is on record as “effective inhibitors”.
Turning to `CSC(=O)C(C#N)C(=O)Nc1ccc(C(F)(F)F)cc1` (stereo not drawn) [Example 1, β-Methylthio-β-oxo-α-(4-trifluoromethylphenyl)carbamoylpropionitrile], in test [1] (50 mg/kg once daily), the “AIP Inhib. score d. 20-22 (% Inhibition of paw edema)” value is reported as “++++ (80-100)” and the “AIP Inhib. score d. 40-42 (% Inhibition of paw edema)” value was “++++ (80-100)”. Further, in test [2], the “CIP (% Inhibition, reduction in paw volume)” value is reported as “A (≥25% reduction in paw volume)”.

The values are drawn from US4975462A, “Antiarthritic α-arylcarbamoyl cyanoacetic acid derivatives” (Bristol-Myers Company, priority 1988, dated 1990).
